Test results taken from patent publication US4068074A, “Cephalosporin derivatives having at the 3-position of the cephem ring a heterocyclic thiomethyl group with a carboxy or sulfo group and at the 7-position of the cephem ring an α-heterocylic acylaminophenyl-acetamide group” (priority 1974, dated 1978).
Converted amounts (≈) assume the structure as drawn. Like-named read-outs stand apart in the source and are kept apart here.

What was measured:
[1] = Solubility of salts in water (Table 2); type: physicochemical; settings: for Solubility (appearance of solution): sodium salt, in water; for solubility: disodium salt, water, showing pH 7.4, read-out: Solubility: disodium salt dissolved in water in an amount of
Text: An advantage of the compounds of this invention is that the salts, for example, sodium salts of these compounds are readily soluble in water at pH of living bodies, which makes them suitable for injections at high concentration. The solubility of these compounds are illustrated in Table 2 together with a control example.

[2] = Residual antibacterial activity after incubation with 90% plasma (Table 4); type: in vitro ADME, male Sprague-Dowley rat; settings: 90% rat plasma
Method: (§1) The relation between the reaction period of time and the antibacterial activity (residual activity, %) when these compounds are incubated with the plasma and the liver homogenate of a male Sprague-Dowley rat is shown in Table 4. The residual antibacterial activity was measured by a thin-layer cup method according to Bacillus subtilis ATCC 6633.
A*Residual activity (%) when incubated with 90% plasma.

[3] = Residual antibacterial activity after incubation with 10% liver homogenate (Table 4); type: in vitro ADME, male Sprague-Dowley rat; settings: 10% rat liver homogenate
Method: as §1
B*Residual activity (%) when incubated with 10% liver homogenate.

[4] = tested on: Staphylococcus Onuma; experiment: MIC against bacteria (Table I), strain (18); type: cell-based; settings: (18) Staphylococcus Onuma; read-out: MIC
Text: (§2) Now, for illustrating the excellent pharmacological effects of the compounds of this invention, the values of MIC (γ/ml.) of the compounds against various bacteria are shown in Table 1, in which the compounds of this invention used are shown by example numbers.
(18) Staphylococcus Onuma

[5] = tested on: Proteus vulgaris 0X 19US; experiment: MIC against bacteria (Table I), strain (2); type: cell-based; settings: 0X19US; (2) Proteus vulgaris 0X 19US; read-out: MIC
Text: as §2
(2) Proteus vulgaris 0X 19US

[6] = tested on: Staphylococcus aureus 209P; experiment: MIC against bacteria (Table I), strain (16); type: cell-based
Text: as §2
(16) Staphylococcus aureus 209P

[7] = tested on: Salmonella typhi H901 W; experiment: MIC against bacteria (Table I), strain (9); type: cell-based; settings: Salmonella enterica, TYPHI
Text: as §2
(9) Salmonella typhi H901 W

[8] = tested on: Salmonella enteritidis; experiment: MIC against bacteria (Table I), strain (10); type: cell-based; settings: Salmonella enterica; (10) Salmonella enteritidis; read-out: MIC
Text: as §2
(10) Salmonella enteritidis

[9] = tested on: Psuedomonas ovalis IMA 1002; experiment: MIC against bacteria (Table I), strain (6); type: cell-based; settings: (6) Psuedomonas ovalis IMA 1002; read-out: MIC
Text: as §2
(6) Psuedomonas ovalis IMA 1002

[10] = tested on: Shigella sonnei II 37148; experiment: MIC against bacteria (Table I), strain (12); type: cell-based; settings: II37148; (12) Shigella sonnei II 37148; read-out: MIC
Text: as §2

[11] = tested on: Escherichia coli kauffmann 0-1; experiment: MIC against bacteria (Table I), strain (7); type: cell-based; settings: Escherichia coli
Text: as §2
(7) Escherichia coli kauffmann 0-1

[12] = tested on: Proteus mirabilis IXM OM-19; experiment: MIC against bacteria (Table I), strain (3); type: cell-based; settings: IXMOM19; (3) Proteus mirabilis IXM OM-19; read-out: MIC
Text: as §2
(3) Proteus mirabilis IXM OM-19

[13] = tested on: Pseudomonas aeruginosa 99 (Gentamycin resistant); experiment: MIC against bacteria (Table I), strain (5); type: cell-based; settings: (5) Pseudomonas aeruginosa 99 (Gentamycin resistant); read-out: MIC
Text: as §2
(5) Pseudomonas aeruginosa 99 (Gentamycin resistant)

[14] = tested on: Pseudomonas aeruginosa ATCC 8689; experiment: MIC against bacteria (Table I), strain (4); type: cell-based; settings: ATCC8689; (4) Pseudomonas aeruginosa ATCC 8689; read-out: MIC
Text: as §2
(4) Pseudomonas aeruginosa ATCC 8689

[15] = tested on: Bacillus subtilis ATCC 6633; experiment: MIC against bacteria (Table I), strain (14); type: cell-based; settings: ATCC6633; (14) Bacillus subtilis ATCC 6633; read-out: MIC
Text: as §2
(14) Bacillus subtilis ATCC 6633

[16] = tested on: Shigella flexneri 2a 1675; experiment: MIC against bacteria (Table I), strain (11); type: cell-based; settings: 2A1675; (11) Shigella flexneri 2a 1675; read-out: MIC
Text: as §2

[17] = tested on: Staphylococcus Shimanishi; experiment: MIC against bacteria (Table I), strain (17); type: cell-based
Text: as §2
(17) Staphylococcus Shimanishi

[18] = tested on: Micrococcus flavus ATCC 10240; experiment: MIC against bacteria (Table I), strain (15); type: cell-based; settings: ATCC10240
Text: as §2
(15) Micrococcus flavus ATCC 10240

[19] = tested on: Proteus vulgaris OXK US; experiment: MIC against bacteria (Table I), strain (1); type: cell-based; settings: (1) Proteus vulgaris OXK US; read-out: MIC
Text: as §2
(1) Proteus vulgaris OXK US

[20] = tested on: Klebsiella pneumoniae ATCC 10031; experiment: MIC against bacteria (Table I), strain (8); type: cell-based; settings: ATCC10031
Text: as §2
(8) Klebsiella pneumoniae ATCC 10031

[21] = tested on: Bacillus megatherium 10778; experiment: MIC against bacteria (Table I), strain (13); type: cell-based; settings: (13) Bacillus megatherium 10778; read-out: MIC
Text: as §2

Row | Structure (SMILES) | MIC [4] [µg/mL] | solubility [1] [mg/mL] | MIC [5] [µg/mL] | MIC [7] [µg/mL] | MIC [8] [µg/mL] | MIC [9] [µg/mL] | MIC [10] [µg/mL] | MIC [11] [µg/mL] | MIC [12] [µg/mL] | MIC [13] [µg/mL] | MIC [14] [µg/mL] | MIC [15] [µg/mL] | MIC [16] [µg/mL] | MIC [19] [µg/mL] | MIC [21] [µg/mL] | further results
1 | Cc1nnc(SCC2=C(C(=O)O)N3C(=O)[C@@H](NC(=O)[C@H](NC(=O)c4cnccc4O)c4ccccc4)[C@H]3SC2)s1 [Control sample, reference compound] | – | – | – | – | – | – | – | – | – | – | – | – | – | – | – | Solubility (appearance of solution) ([1]; at 0.5%): clearly; Solubility (appearance of solution) ([1]; at 1%): became slight turbid; Solubility (appearance of solution) ([1]; at 5%): became turbid; Solubility (appearance of solution) ([1]; at 10%): became thickly turbid; Solubility (appearance of solution) ([1]; at 20%): gelled
2 | O=C(Cc1cccs1)N[C@@H]1C(=O)N2C(C(=O)[O-])=C(C[n+]3ccccc3)CS[C@H]12 [Cephaloridine, reference compound] | – | – | – | – | – | – | – | – | – | – | – | – | – | – | – | remaining at 0.25 h ([2]; 90% plasma, 15 minute): 97.2%; remaining at 0.5 h ([2]; 90% plasma, 30 minute): 89.5%; remaining at 1.5 h ([2]; 90% plasma, 90 minute): 72.2%; Residual activity ([2]; 0 minute): 100%; remaining at 0.25 h ([3]; 10% liver homogenate, 15 minute, read-out: Residual activity): 82.3%; remaining at 0.5 h ([3]; 10% liver homogenate, 30 minute, read-out: Residual activity): 86%; remaining at 1.5 h ([3]; 10% liver homogenate, 90 minute, read-out: Residual activity): 91.1%; Residual activity ([3]; 0 minute): 100%
3 | O=C(O)CSc1nsc(SCC2=C(C(=O)O)N3C(=O)[C@@H](NC(=O)[C@H](NC(=O)c4cnccc4O)c4ccccc4)[C@H]3SC2)n1 [Example 13, 7-[D-α-(4-hydroxynicotinoylamido)-α-phenylacetamido]-3-(3-carboxymethylthio-1,2,4-thiadiazol-5yl)thiomethyl-Δ^3 cephem-4-carboxylic acid] | 6.25 (≈ 9.26 µM) | > 200 | 0.78 (≈ 1.16 µM) | 1.56 (≈ 2.31 µM) | 0.39 (≈ 0.578 µM) | 12.5 (≈ 18.5 µM) | 3.13 (≈ 4.64 µM) | 3.13 (≈ 4.64 µM) | 0.39 (≈ 0.578 µM) | 6.25 (≈ 9.26 µM) | 12.5 (≈ 18.5 µM) | 0.39 (≈ 0.578 µM) | 1.56 (≈ 2.31 µM) | < 0.09 | 0.39 (≈ 0.578 µM) | MIC ([6]; (16) Staphylococcus aureus 209P, read-out: MIC): 0.78 µg/mL (≈ 1.16 µM); MIC ([17]; (17) Staphylococcus Shimanishi, read-out: MIC): 6.25 µg/mL (≈ 9.26 µM); MIC ([18]; (15) Micrococcus flavus ATCC 10240, read-out: MIC): 6.25 µg/mL (≈ 9.26 µM); MIC ([20]; Klebsiella pneumoniae): 3.13 µg/mL (≈ 4.64 µM)
4 | COc1ccncc1C(=O)N[C@@H](C(=O)N[C@@H]1C(=O)N2C(C(=O)O)=C(CSc3nnc(SCC(=O)O)s3)CS[C@H]12)c1ccccc1 [Example 26, 7-[D-α-(4-methoxynicotinoylamido)-α-phenylacetamido]-3-(5-carboxymethylthio-1,3,4-thiadiazole-2-yl)thiomethyl-Δ^3-cephem-4-carboxylic acid] | 12.5 (≈ 18.1 µM) | > 200 | 0.39 (≈ 0.566 µM) | 6.25 (≈ 9.07 µM) | 1.56 (≈ 2.26 µM) | 25 (≈ 36.3 µM) | 6.25 (≈ 9.07 µM) | 6.25 (≈ 9.07 µM) | 0.78 (≈ 1.13 µM) | 12.5 (≈ 18.1 µM) | 12.5 (≈ 18.1 µM) | 0.78 (≈ 1.13 µM) | 3.13 (≈ 4.54 µM) | 0.19 (≈ 0.276 µM) | 0.78 (≈ 1.13 µM) | MIC ([6]; Staphylococcus aureus, 209P): 1.56 µg/mL (≈ 2.26 µM); MIC ([17]; Staphylococcus): 6.25 µg/mL (≈ 9.07 µM); MIC ([18]; Micrococcus flavus): 6.25 µg/mL (≈ 9.07 µM); MIC ([20]; (8) Klebsiella pneumoniae ATCC 10031, read-out: MIC): 12.5 µg/mL (≈ 18.1 µM)
